Experimental data as given in ChEMBL document CHEMBL5126638, “Resin Glycosides from Operculina hamiltonii and Their Synergism with Vinblastine in Cancer Cells” (J Nat Prod, 2022).
Active and inactive are the calls of the source. No cut-off for these calls is given here.

Experiments:
Assay type in all cases: functional, cell-based
[1] = system: MCF7-VP; test: Enhancement of 0.003 uM vinblastine-induced cytotoxicity in human MCF7/Vin cells assessed as growth inhibition level after 48 hrs by SRB assay
[2] = system: HCT-116; test: Cytotoxicity in human HCT-116 cells assessed as growth inhibition level after 48 hrs by SRB assay; conditions: HCT-116, 48 h
[3] = system: HCT-116; test: Enhancement of 0.003 uM vinblastine-induced cytotoxicity in human HCT-116 cells assessed as growth inhibition level after 48 hrs by SRB assay; conditions: HCT-116, 48 h
[4] = system: HeLa; test: Enhancement of 0.003 uM vinblastine-induced cytotoxicity in human HeLa cells assessed as growth inhibition level after 48 hrs by SRB assay
[5] = system: MCF7; test: Enhancement of 0.003 uM vinblastine-induced cytotoxicity in human MCF7 cells assessed as growth inhibition level after 48 hrs by SRB assay; conditions: MCF7, 48 h
[6] = system: HeLa; test: Cytotoxicity in human HeLa cells assessed as growth inhibition level after 48 hrs by SRB assay
[7] = system: MCF7; test: Cytotoxicity in human MCF7 cells assessed as growth inhibition level after 48 hrs by SRB assay; conditions: MCF7, 48 h
[8] = system: MCF7-VP; test: Cytotoxicity in human MCF7/Vin cells assessed as growth inhibition level after 48 hrs by SRB assay
[9] = system: MCF7; test: Enhancement of 0.4 uM vinblastine-induced cytotoxicity in human MCF7 cells assessed as growth inhibition level at 25 uM after 48 hrs by Microscopic visualization based assay

Row | SMILES | IC50 [1] | IC50 [2] | IC50 [3] | IC50 [4] | IC50 [5] | IC50 [6] | IC50 [7] | IC50 [8] | Activity [9]
1 | CCCCCCCCCCCC(=O)O[C@H]1[C@H](O[C@@H]2[C@H]3OC(=O)CCCCCCCCC[C@H](CCCCC)O[C@@H]4O[C@H](C)[C@H](O)[C@H](O)[C@H]4O[C@H](O[C@H]2C)[C@@H]3O)O[C@@H](C)[C@H](O[C@@H]2O[C@@H](C)[C@H](O)[C@@H](O)[C@H]2O)[C@H]1O[C@@H]1O[C@H](CO)[C@@H](O)[C@H](O)[C@H]1O | 18.4 µM | > 25 µM | 17.7 µM | 26.6 µM | 15.2 µM | > 25 µM | > 25 µM | > 25 µM | Active
2 | CC[C@]1(O)C[C@@H]2CN(CCc3c([nH]c4ccccc34)[C@@](C(=O)OC)(c3cc4c(cc3OC)N(C)[C@H]3[C@@](O)(C(=O)OC)[C@H](OC(C)=O)[C@]5(CC)C=CCN6CC[C@]43[C@@H]65)C2)C1 [VINBLASTINE] | – | 0.3 µM | – | – | – | 0.004 µM | 0.035 µM | 1.63 µM | –
3 | CCCCCCCCCCCC(=O)O[C@H]1[C@H](O[C@@H]2[C@@H](O)[C@@H](O)[C@H](O[C@H]3[C@H](O[C@@H](CCCCC)CCCCCCCCCC(=O)OC)O[C@H](C)[C@H](O)[C@@H]3O)O[C@H]2C)O[C@@H](C)[C@H](O[C@@H]2O[C@@H](C)[C@H](O)[C@@H](O)[C@H]2O)[C@H]1O[C@@H]1O[C@H](CO)[C@@H](O)[C@H](O)[C@H]1O | 3.1 µM | > 25 µM | 6.8 µM | 14.6 µM | 4.4 µM | > 25 µM | > 25 µM | > 25 µM | Active
4 | CCCCCCCCCC(=O)O[C@H]1[C@H](O[C@@H]2[C@H]3OC(=O)CCCCCCCCC[C@H](CCCCC)O[C@@H]4O[C@H](C)[C@H](O)[C@H](O)[C@H]4O[C@H](O[C@H]2C)[C@@H]3O)O[C@@H](C)[C@H](O[C@@H]2O[C@@H](C)[C@H](O)[C@@H](O)[C@H]2O)[C@H]1O[C@@H]1O[C@H](CO)[C@@H](O)[C@H](O)[C@H]1O | 19.4 µM | > 25 µM | 12.8 µM | 23.8 µM | 12.3 µM | > 25 µM | > 25 µM | > 25 µM | Active
5 | COc1cc2c(c(OC)c1OC)-c1ccc(OC)c(=O)cc1[C@@H](NC(C)=O)CC2 [COLCHICINE] | – | 0.08 µM | – | – | – | 0.006 µM | – | 1.57 µM | –
6 | CCCCCCCCCC(=O)O[C@H]1[C@H](O[C@@H]2[C@@H](O)[C@@H](O)[C@H](O[C@H]3[C@H](O[C@@H](CCCCC)CCCCCCCCCC(=O)OC)O[C@H](C)[C@H](O)[C@@H]3O)O[C@H]2C)O[C@@H](C)[C@H](O[C@@H]2O[C@@H](C)[C@H](O)[C@@H](O)[C@H]2O)[C@H]1O[C@@H]1O[C@H](CO)[C@@H](O)[C@H](O)[C@H]1O | 10 µM | > 25 µM | 8.6 µM | 26.1 µM | 4.7 µM | > 25 µM | > 25 µM | > 25 µM | Active
